Test results published in patent US11603355B2, “Charged ion channel blockers and methods for use” (Nocion Therapeutics, Inc., priority 2019, dated 2023).
Structures can show the parent of a compound that is named as a salt.

How the values were obtained:
NaV1.7 [1] = target: T1, NaV1.7 (Homo sapiens, UniProt Q15858); test: Automated patch clamp (Qube 384), internal block of NaV1.7; format: cell-based; details: IC50, compound in internal solution, HEK293 cells, read-out: Nav1.7 Intracellular Inhibition
T1 construct: expressed in transfected cells; host or cells: HEK293 (tetracycline-inducible)
T1 sequence (Q15858 whole entry): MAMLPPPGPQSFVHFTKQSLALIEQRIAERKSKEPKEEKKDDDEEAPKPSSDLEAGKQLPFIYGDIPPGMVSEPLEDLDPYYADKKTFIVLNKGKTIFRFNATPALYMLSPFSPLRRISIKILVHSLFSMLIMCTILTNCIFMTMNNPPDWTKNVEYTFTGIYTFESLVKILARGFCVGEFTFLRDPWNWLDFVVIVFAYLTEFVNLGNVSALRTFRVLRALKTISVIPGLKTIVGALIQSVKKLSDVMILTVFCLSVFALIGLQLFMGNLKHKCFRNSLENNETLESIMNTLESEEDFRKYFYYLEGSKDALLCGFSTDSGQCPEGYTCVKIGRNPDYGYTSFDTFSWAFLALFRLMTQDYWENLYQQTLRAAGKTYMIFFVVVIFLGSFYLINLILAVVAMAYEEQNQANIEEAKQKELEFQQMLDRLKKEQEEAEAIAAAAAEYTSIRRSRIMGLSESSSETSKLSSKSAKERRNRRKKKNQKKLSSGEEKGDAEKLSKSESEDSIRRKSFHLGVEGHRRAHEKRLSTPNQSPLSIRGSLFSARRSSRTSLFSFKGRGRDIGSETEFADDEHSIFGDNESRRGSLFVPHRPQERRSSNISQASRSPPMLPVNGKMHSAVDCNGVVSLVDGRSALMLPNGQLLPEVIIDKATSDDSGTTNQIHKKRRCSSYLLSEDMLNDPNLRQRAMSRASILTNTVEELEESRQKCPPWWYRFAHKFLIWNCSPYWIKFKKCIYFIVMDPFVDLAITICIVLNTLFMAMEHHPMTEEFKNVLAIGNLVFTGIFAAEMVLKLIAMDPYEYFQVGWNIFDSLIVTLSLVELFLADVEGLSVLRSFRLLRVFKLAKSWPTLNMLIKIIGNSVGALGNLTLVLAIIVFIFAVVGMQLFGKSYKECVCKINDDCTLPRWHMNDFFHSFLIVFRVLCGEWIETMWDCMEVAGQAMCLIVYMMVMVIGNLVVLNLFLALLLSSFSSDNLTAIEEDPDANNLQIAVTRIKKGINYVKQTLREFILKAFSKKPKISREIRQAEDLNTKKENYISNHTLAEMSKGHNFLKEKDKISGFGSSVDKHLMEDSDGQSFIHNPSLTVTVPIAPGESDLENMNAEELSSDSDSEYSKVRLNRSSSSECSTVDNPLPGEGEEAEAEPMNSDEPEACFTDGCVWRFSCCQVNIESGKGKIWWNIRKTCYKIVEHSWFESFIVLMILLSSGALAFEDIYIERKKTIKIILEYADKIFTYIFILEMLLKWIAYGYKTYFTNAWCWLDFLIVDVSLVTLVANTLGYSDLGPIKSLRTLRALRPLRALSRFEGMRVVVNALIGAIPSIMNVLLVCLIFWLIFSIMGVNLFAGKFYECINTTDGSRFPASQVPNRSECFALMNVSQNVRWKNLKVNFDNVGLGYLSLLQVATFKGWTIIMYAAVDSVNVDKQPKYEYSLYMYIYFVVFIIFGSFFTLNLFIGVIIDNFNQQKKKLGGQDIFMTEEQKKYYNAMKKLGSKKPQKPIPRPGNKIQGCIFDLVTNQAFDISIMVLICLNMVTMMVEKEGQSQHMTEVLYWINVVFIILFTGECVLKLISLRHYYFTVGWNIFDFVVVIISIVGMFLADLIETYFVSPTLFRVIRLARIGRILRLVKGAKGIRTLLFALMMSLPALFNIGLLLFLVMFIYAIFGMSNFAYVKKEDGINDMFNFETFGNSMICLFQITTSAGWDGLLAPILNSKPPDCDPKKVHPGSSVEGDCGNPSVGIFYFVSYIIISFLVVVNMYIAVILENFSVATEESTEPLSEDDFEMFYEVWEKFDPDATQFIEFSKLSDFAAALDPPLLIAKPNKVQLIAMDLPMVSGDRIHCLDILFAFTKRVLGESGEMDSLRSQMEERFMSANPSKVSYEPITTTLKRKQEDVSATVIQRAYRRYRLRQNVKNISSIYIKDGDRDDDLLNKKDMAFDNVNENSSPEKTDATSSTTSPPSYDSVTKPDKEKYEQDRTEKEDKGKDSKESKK
Experimental: (§1) NaV1.7 was expressed in HEK293 cells upon induction with tetracycline. Cells were cultured in DMEM containing 10% dialyzed Fetal Bovine Serum (VWR, Radnor, Pa.), 1% Glutamax (VWR, Radnor, Pa.), 1% Penicillin-Streptomycin (VWR, Radnor, Pa.), 100 mg/L Hygromycin (Thermo Fisher Scientific, Waltham, Mass. and 5 mg/L Blasticidin (Alfa Aesar, Haverhill, Mass.). Cells were grown and maintained at 37° C. in a humidified environment containing 10% CO2 in air. Cells were detached from the culture flask for passage and harvested using 0.05% Trypsin-EDTA (Thermo Fisher Scientific, Waltham, Mass.). To induce NaV1.7, cells were induced with tetracycline (0.1-1 μg/mL, IBI Scientific, Peosta, Iowa) the day before recording.
Before experiments, cells were washed with DPBS (VWR, Radnor, Pa.), digested with Detachin (VWR Radnor, Pa.) and then triturated 10 times in CHO Serum-Free Media (VWR Radnor, Pa.) to resuspend the cells and to break apart cell aggregates. Cells were counted and the final concentration was set at 2-5 million cells per mL.
The intracellular solution contained the following: 140 mM CsF, 1 mM/5 mM EGTA/CsOH, 10 mM HEPES, 10 mM NaCl, adjusted to pH 7.3 with CsOH, and osmolality to 320 with OSM solution. The external solution contained the following: 145 mM NaCl, 4 mM KCl, 1 mM MgCl2, 2 mM CaCl2), 10 mM HEPES, 10 mM Glucose, adjusted to pH 7.4 with CsOH and osmolality to 305 with OSM solution. The OSM solution was a normal Ringer solution containing (in mM) NaCl 155, HEPES 10, sucrose, KCl 3.5, CaCl2) 1.5, MgCl2 1 adjusted to pH 7.4 with NaOH. All chemicals are from Sigma-Aldrich, St. Louis, Mo. In order to test the degree of internal block by test compounds, the compounds were dissolved in internal solution at the indicated test concentration. […] In order to test the degree of external block by test compounds the compounds were dissolved in external solution at the indicated test concentration.
Automated Patch Clamps were performed on Qube 384 (Sophion Bioscience, Woburn Mass.) with multihole Qchips at a temperature setting of 22 degrees. The whole cells configuration was formed with default Qube seal and break-in parameter. The membrane potential was held at −100 mV before the voltage protocol began. Two voltage protocols were followed.
Step 1: Cells were held at −100 mV with a depolarized pulse to −20 mV for 10 ms, the interval was set at 5 s. Currents were corrected by default leak subtraction from every pulse. The duration was set at 5 mins.
Step 2: Cells were held at −100 mV with a depolarized pulse to −20 mV for 10 ms. The frequency was 5 Hz. Currents were corrected by leak subtraction calculated before step 2. The duration was set at 4 mins.
After Step 2, the Qchip was removed from the recording chamber. The internal solution was changed with solutions containing test compounds. Qchips were held at −100 mV without pulsing after being replaced in the recording chamber. The total solution switching time was 8 minutes. After the internal solution exchange, Cells were recorded and step 2 for repeated for 10 minutes.
Data analysis was performed by Sophion Analyzer. Cells were filtered with minimum 50 MOhm seal resistance and minimum 5 nA starting current. The rundown of the currents was corrected with control cells (Non-Drug). The remaining was calculated by averaging last 3 points in the end of experiments. The base line was calculated as the average of last 3 points of Step 2.
IC50 curves were plotted with DR-plots/Hill function (a dose-response plot with a Hill fit).
Representative examples of the invention were tested for intracellular inhibition of NaV 1.7 in the automated patch clamp assay. Activity Range is reported as IC50: “++++” (<0.3 μM), “+++” (0.3-1 μM), “++” (1-3 μM) or “+” (3-10 μM).

[2] = PAMPA membrane permeability assay; format: in vitro ADME; details: permeability coefficient, pH 7.4 buffer, GIT lipid, 4 hours incubation
Experimental: The PAMPA assay (pION, Inc., Woburn Mass.) was used to determine the ability of compounds of the invention to cross an artificial lipid membrane by passive diffusion. Test compounds were dissolved in DMSO (10 mM) and diluted 200-fold in buffer (pION Inc., pH 7.4) to provide 50 uM stock solutions. Buffer (150 μL) was added to a UV blank plate and stock solutions (150 μL) were transferred to a UV reference plate. The blank and reference spectrum were read using a spectrophotometer. Stock solutions (200 μL) were added to the donor plate of the PAMPA sandwich plate and an accept plate painted with GIT lipid (pION Inc, 5) was placed on top. Buffer (200 μL) was added to the acceptor plate and the PAMPA sandwich plate was incubated for 4 hours. Aliquots (150 μL) from the acceptor plate were added to a UV plate and read as acceptor spectrum. Aliquots (150 μL) of the donor solutions were added to a UV analysis plate and read as donor spectrum. The permeability coefficient of test compounds was calculated using PAMPA Explorer™ software (version 3.5.0.4) based on the AUC of the reference plate, the donor plate, and the acceptor plate.
The PAMPA permeability results (10^−6 cm/s) of representative compounds are reported as “+” (<0.1 10^−6 cm/s), “++” (0.1-2.0 10^−6 cm/s), “+++” (2.0-10.010^−6 cm/s) or “++++” (>10.0 10^−6 cm/s).

NaV1.7 [3] = target: T1, NaV1.7; test: Manual patch clamp, internal block of NaV1.7 current; format: cell-based; details: compound in internal solution, HEK293 cells, read-out: Nav1.7 Intracellular Inhibition; for inhibition at 3 µM: % inhibition at 3 μM test concentration; for inhibition at 10 µM: % inhibition at 10 μM test concentration
Experimental: Representative compounds of the invention were synthesized according to the described methods and tested for the ability to inhibit voltage-gated sodium channels.
as §1, with “recording and plated onto 24-well plates. Cells were washed with DPBS (VWR, Radnor, Pa.), trypsinized and then triturated five times in 10 mL of growth media to break apart cell aggregates. For one 24-well plate, 2 mL of cell suspension was mixed with 23 mL of fresh growth media and 0.1-1 μg/mL tetracycline added. 1 ml of mixed media with cells was then added to each well of a 24-well plate, with a 12 mm coverslip already placed in the bottom of the well. Cells were then incubated in 37° C. and 10% CO2 overnight.” for “recording.”
The intracellular solution contained the following (in mM) CsCl 135, NaCl 10, EGTA 10, HEPES 10, MgCl2 2, adjusted to pH 7.2 with CsOH. The external solution was a normal Ringer solution containing (in mM) NaCl 155, HEPES 10, glucose 10, KCl 3.5, CaCl2 1.5, MgCl2 1 adjusted to pH 7.4 with NaOH. CsCl is from Alfa Aesar, Haverhill, Mass. All other chemicals are from Sigma-Aldrich, St. Louis, Mo. In order to test the degree of internal block by test compounds the compounds were dissolved in internal solution at the indicated test concentration. […] In order to test the degree of external block by test compounds the compounds were dissolved in external solution at the indicated test concentration.
18-24 hours after cells were induced with tetracycline, coverslips were placed into a chamber filled with Normal Ringer solution at room temperature and the chamber placed on a microscope. Pipettes were pulled from borosilicate glass on a P97 puller (Sutter Instrument, Novato, Calif.) and polished with a MF-830 Microforge (Narishige International USA, Inc., Amityville, N.Y.) to have a resistance of 1.5-2.5 MΩ when filled with CsCl internal solution at room temperature. Healthy cells (those that are round and translucent with no visible blemishes) were chosen for seal formation. A seal was formed between the pipette and the cell, and a brief pulse of suction was used to “break in” and establish the whole-cell configuration. The membrane potential was held at −100 mV before the voltage protocol began. Only cells with series resistance between 1.5-5 MΩ were retained for analysis. The voltage protocol was as follows: Cells were held at −100 mV for 12 ms followed by a hyperpolarizing step to −105 mV for 12 ms to monitor the leak. Cells were then stepped back to −100 mV for 40 ms. Cells were then depolarized to −20 mV for 10 ms and then returned to −100 mV for 26 ms.
Once the recording was started, the voltage protocol was run at 30 second intervals for 5 minutes to get a stable baseline. This was followed by four 30-second periods of 5 Hz stimulation of the same voltage protocol separated by 1 minute of rest which was then followed by 0.33 Hz stimulation after the last train. Currents were recorded using PatchMaster software with Heka EPC10 (HEKA Electronics, Lambrecht, Germany). Only cells with inward current amplitudes at −20 mV between 400 pA and 4 nA were accepted. In addition, cells having leak currents greater than 10% of their current amplitudes were discarded. […]

Structure (SMILES) | IC50 (NaV1.7 [1]) [µM] | PAMPA (10^−6 cm/s) [2] | inhibition at 3 µM (NaV1.7 [3]) [%] | inhibition at 10 µM (NaV1.7 [3]) [%]
Cc1cccc(O)c1NC(=O)C[N+]1(Cc2ccccc2)CCCCCC1.[Br-] [Compound 79A, 1-benzyl-1-(2-((2-hydroxy-6-methylphenyl)amino)-2-oxoethyl) azepan-1-ium formate] | 1 to 3 | + (“+” (<0.1 10^−6 cm/s)) |  | 
Cc1cccc(C)c1NC(=O)C[N+]1(Cc2ccccc2)CCCCCC1 [Compound 3] | 0.3 to 1 |  |  | 
Cc1cccc(C)c1NCC[N+]1(Cc2ccccc2)CCCCCC1 [Compound 84A, 1-benzyl-1-(2-((2,6-dimethylphenyl)amino)ethyl) azepan-1-ium trifluoroacetate] | 3 to 10 | + (“+” (<0.1 10^−6 cm/s)) |  | 
CCC(C(=O)Nc1c(C)cccc1C)[N+]1(Cc2cccc(O)c2)CCCCC1 (stereo not shown) [Compound 29] | < 0.3 |  |  | 
Cc1cccc(C(=O)N(C)C)c1NC(=O)C[N+]1(Cc2ccccc2)CCCCCC1.[Br-] [Compound 78A] | 3 to 10 | + (“+” (<0.1 10^−6 cm/s)) |  | 
CCC(C(=O)Nc1c(C)cccc1C)[N+]1(Cc2cccc(OC)c2)CCCCC1 (stereo not shown) [Compound 23] | 0.3 to 1 |  |  | 
CCc1cccc(C[N+]2(C(CC)C(=O)Nc3c(C)cccc3C)CCCCC2)c1 (stereo not shown) [Compound 20] | 1 to 3 |  |  | 
Cc1cccc(C(F)(F)F)c1NC(=O)C[N+]1(Cc2ccccc2)CCCCCC1 [Compound 73A] | 0.3 to 1 |  | > 90 | 
CCC(C(=O)Nc1c(C)cccc1C)[N+]1(Cc2cccc(C#N)c2)CCCCC1 (stereo not shown) [Compound 14] | 0.3 to 1 |  |  | 
Cc1cccc(C)c1OCC[N+]1(Cc2ccccc2)CCCCCC1 [Compound 85A, 1-benzyl-1-(2-(2,6-dimethylphenoxy)ethyl) azepan-1-ium bromide] | 1 to 3 |  | > 90 | > 95
CCc1cccc(C[N+]2(C(CC)C(=O)Nc3c(C)cccc3C)CCCCC2)c1 (stereo not shown) [Compound 20A] |  | + (“+” (<0.1 10^−6 cm/s)) | > 90 | > 95
Cc1cccc(C)c1NC(=O)C[N+]1(Cc2ccccc2)CCCCCCC1.[Br-] [Compound 31A, 1-benzyl-1-(2-((2,6-dimethylphenyl)amino)-2-oxoethyl)azocan-1-ium bromide] |  | + (“+” (<0.1 10^−6 cm/s)) | > 90 | > 95
CCCN(CCC)C(=O)C1CCC[N+](CC(=O)Nc2c(C)cccc2C)(Cc2ccccc2)C1 (stereo not shown) [Compound 67A] | 1 to 3 |  |  | 
CCC(C(=O)Nc1c(C)cccc1C)[N+]1(Cc2ccccc2C#N)CCCCC1 (stereo not shown) [Compound 15A] |  | + (“+” (<0.1 10^−6 cm/s)) |  | > 95
CCC(C(=O)Nc1c(C)cccc1C)[N+]1(Cc2cnn(C)c2)CCCCC1.[Br-] (stereo not shown) [Compound 34A, 1-(1-((2,6-dimethylphenyl)amino)-1-oxobutan-2-yl)-1-((1-methyl-1H-pyrazol-4-yl)methyl) piperidin-1-ium bromide] |  | + (“+” (<0.1 10^−6 cm/s)) | 70 to 90 | 
CCC(C(=O)Nc1c(C)cccc1C)[N+]1(Cc2cccc(OC)c2)CCCCC1 (stereo not shown) [Compound 23A, 1-(1-((2,6-dimethylphenyl)amino)-1-oxobutan-2-yl)-1-(3-methoxybenzyl) piperidin-1-ium bromide] |  | + (“+” (<0.1 10^−6 cm/s)) |  | 70 to 95
CCC(C(=O)Nc1c(C)cccc1C)[N+]1(Cc2cccc(Cl)c2)CCCCC1 (stereo not shown) [Compound 11] | 0.3 to 1 |  |  | 
CCC(C(=O)Nc1c(C)cccc1C)[N+]1(Cc2ccccc2)CCCCCC1 (stereo not shown) [Compound 30] | < 0.3 |  |  | 
